The test system of this assay is FLAP (5-lipoxygenase activating protein). The assay can be described thus: In vitro binding test: displacement of [3H]-7-chloro-3-(5-((3-fluoropyridin-2-yl)methoxy)-2-methylphenyl)-3,4-dihydroquinazolin-2(1H)-one from Sf9 microsome fractions. The arrangement: species or system human and mouse. The note with it: Sf9 microsome fractions expressing FLAP; 100% = radioligand binding with 10 μM sodium 3-(3-(tert-butylsulfanyl)-1-(4-chlorobenzyl)-5-isopropyl-1H-indol-2-yl)-2,2-dimethylpropanoate, 0% = DMSO; test compound concentration not given. The essentials: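 Sf9 microsomes expressing human or mouse FLAP (2 μg/mL) preincubated with compound 10 min at room temperature, then 120 nM tritiated quinazolinone ligand added for 60 min; buffer 100 mM Tris-HCl pH 7.5 with NaCl, EDTA, DTT, glycerol, Tween20. Bound ligand filtered and counted by scintillation; 10 μM indole propanoate defines 100% inhibition, DMSO 0%.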
Background: Loss of bound radioactivity is the signal in a displacement assay; it reports binding, not function.

As for `Cc1ccc(OCc2ncccc2F)cc1-n1c(=O)[nH]c2cc(NC(=O)C3CC3)ccc2c1=O` [Example 350, N-(3-(5-((3-fluoropyridin-2-yl)methoxy)-2-methylphenyl)-2,4-dioxo-1,2,3,4-tetrahydroquinazolin-7-yl)cyclopropanecarboxamide], the “inhibitory rate (%)” value is listed as 101%. For `Cc1cc2c(cc1N1Cc3c(cc(C4CC4)nc3C3CC3)NC1=O)OC(c1ncccc1F)CC2` (stereo not drawn) [Example 52, 5,7-dicyclopropyl-3-(2-(3-fluoropyridin-2-yl)-6-methyl-3,4-dihydro-2H-chromen-7-yl)-3,4-dihydropyrido[4,3-d]pyrimidin-2(1H)-one], the “inhibitory rate (%)” value is listed as 115%. With `Cc1cc2c(cc1N1Cc3ccc(C(=O)NC4CC4)cc3NC1=O)OC(c1ncccc1F)CC2` (stereo not drawn) [Example 184, N-cyclopropyl-3-(2-(3-fluoropyridin-2-yl)-6-methyl-3,4-dihydro-2H-chromen-7-yl)-2-oxo-1,2,3,4-tetrahydroquinazoline-7-carboxamide] the figure was 97%.

For the compound `Cc1cc2c(cc1N1Cc3c(cc(Oc4ccnn4C)nc3C3CC3)NC1=O)OC(c1ncccc1F)CC2` (stereo not drawn) [Example 141, 5-cyclopropyl-3-(2-(3-fluoropyridin-2-yl)-6-methyl-3,4-dihydro-2H-chromen-7-yl)-7-((1-methyl-1H-pyrazol-5-yl)oxy)-3,4-dihydropyrido[4,3-d]pyrimidin-2(1H)-one], the “inhibitory rate (%)” value is given as 102%. The same measure for `Cc1ccc(OCc2c(F)cccc2F)cc1-n1c(=O)[nH]c2nc(N3CCOCC3)sc2c1=O` [Example 334, 6-(5-((2,6-difluorobenzyl)oxy)-2-methylphenyl)-2-(morpholin-4-yl)[1,3]thiazolo[4,5-d]pyrimidine-5,7(4H,6H)-dione]: 93%; for `O=c1[nH]c2ccc(Br)c(Cl)c2c(=O)n1-c1cc(OCc2ncccc2F)ccc1Cl` [Example 368, 6-bromo-5-chloro-3-(2-chloro-5-((3-fluoropyridin-2-yl)methoxy)phenyl)quinazoline-2,4(1H,3H)-dione]: 108%.

For the compound `COC(=O)c1ccc2c(c1)NC(=O)N(c1cc(OCc3ncccc3F)ccc1C)C2` [Example 216, methyl 3-(5-((3-fluoropyridin-2-yl)methoxy)-2-methylphenyl)-2-oxo-1,2,3,4-tetrahydroquinazoline-7-carboxylate], the “inhibitory rate (%)” value worked out at 104%. The same measure for `O=C1Nc2cc(-c3nnco3)nc(C3CC3)c2CN1c1cc2c(cc1Cl)CCC(c1ncccc1F)O2` (stereo not drawn) [Example 124, 3-(6-chloro-2-(3-fluoropyridin-2-yl)-3,4-dihydro-2H-chromen-7-yl)-5-cyclopropyl-7-(1,3,4-oxadiazol-2-yl)-3,4-dihydropyrido[4,3-d]pyrimidin-2(1H)-one]: 104%; for `Cc1cc2c(cc1N1Cc3c(cc(Cl)nc3Cl)NC1=O)OC(c1ncccc1F)CC2` (stereo not drawn) [Example 41, 5,7-dichloro-3-(2-(3-fluoropyridin-2-yl)-6-methyl-3,4-dihydro-2H-chromen-7-yl)-3,4-dihydropyrido[4,3-d]pyrimidin-2(1H)-one]: 108%; for `Cc1ccc(OCc2ncccc2F)cc1N1Cc2ccc(C(F)(F)F)cc2NC1=O` [Example 275, 3-(5-((3-fluoropyridin-2-yl)methoxy)-2-methylphenyl)-7-(trifluoromethyl)-3,4-dihydroquinazolin-2(1H)-one]: 101%. With `Cc1cc2c(cc1N1Cc3c(Cl)cnc(-c4c(C)noc4C)c3NC1=O)OC(c1ncccc1F)CC2` (single isomer, unassigned; (+)) [Example 12, (+)-5-chloro-8-(3,5-dimethyl-1,2-oxazol-4-yl)-3-(2-(3-fluoropyridin-2-yl)-6-methyl-3,4-dihydro-2H-chromen-7-yl)-3,4-dihydropyrido[3,4-d]pyrimidin-2(1H)-one], the “inhibitory rate (%)” value is 99%. With `Cc1cc2c(cc1N1Cc3c(ccnc3C(F)(F)F)NC1=O)OC(c1ncccc1F)CC2` (stereo not drawn) [Example 4, 3-(2-(3-fluoropyridin-2-yl)-6-methyl-3,4-dihydro-2H-chromen-7-yl)-5-(trifluoromethyl)-3,4-dihydropyrido[4,3-d]pyrimidin-2(1H)-one] the figure was 103%; with `COCCN1C(=O)N(c2cc3c(cc2Cl)CCC(c2ncccc2F)O3)Cc2c1ccnc2Cl` (stereo not drawn) [Example 55, 5-chloro-3-(6-chloro-2-(3-fluoropyridin-2-yl)-3,4-dihydro-2H-chromen-7-yl)-1-(2-methoxyethyl)-3,4-dihydropyrido[4,3-d]pyrimidin-2(1H)-one], 106%; with `Cc1cc2c(cc1N1Cc3ccc(CO)cc3NC1=O)OC(c1ncccc1F)CC2` (stereo not drawn) [Example 185, 3-(2-(3-fluoropyridin-2-yl)-6-methyl-3,4-dihydro-2H-chromen-7-yl)-7-(hydroxymethyl)-3,4-dihydroquinazolin-2(1H)-one], 98%. For `O=C(NC1CC1)c1ccc(OCc2ncccc2F)cc1N1Cc2ccccc2NC1=O` [Example 221, N-cyclopropyl-4-((3-fluoropyridin-2-yl)methoxy)-2-(2-oxo-1,4-dihydroquinazolin-3(2H)-yl)benzamide], the “inhibitory rate (%)” value was determined as 72%.

Take `Cc1ccc(OCc2c(F)cccc2F)cc1N1Cc2c(cccc2C(C)(C)O)NC1=O` [Example 202, 3-(5-((2,6-difluorobenzyl)oxy)-2-methylphenyl)-5-(2-hydroxypropan-2-yl)-3,4-dihydroquinazolin-2(1H)-one]: the “inhibitory rate (%)” value was determined as 72%. For `O=C1Nc2ccccc2CN1c1cc(OCc2ncccc2F)ccc1C1CC1` [Example 213, 3-(2-cyclopropyl-5-((3-fluoropyridin-2-yl)methoxy)phenyl)-3,4-dihydroquinazolin-2(1H)-one], the “inhibitory rate (%)” value amounted to 114%.

In the case of `Cc1ccc(OCc2c(F)cccc2F)cc1N1Cc2ccc(C#N)cc2NC1=O` [Example 204, 3-(5-((2,6-difluorobenzyl)oxy)-2-methylphenyl)-2-oxo-1,2,3,4-tetrahydroquinazoline-7-carbonitrile], the “inhibitory rate (%)” value amounted to 103%.

In the case of `Cc1ccc(OCc2c(F)cc(Cl)cc2F)cc1N1Cc2ccccc2NC1=O` [Example 174, 3-(5-((4-chloro-2,6-difluorobenzyl)oxy)-2-methylphenyl)-3,4-dihydroquinazolin-2(1H)-one], the “inhibitory rate (%)” value was 54%. With `O=C1Nc2ccccc2CN1c1cc(OCc2ncccc2F)ccc1C(F)(F)F` [Example 214, 3-(5-((3-fluoropyridin-2-yl)methoxy)-2-(trifluoromethyl)phenyl)-3,4-dihydroquinazolin-2(1H)-one] the figure was 110%; with `COC(=O)c1ccc2c(c1)NC(=O)N(c1cc(OCc3ccccn3)ccc1C)C2` [Example 232, methyl 3-(2-methyl-5-(pyridin-2-ylmethoxy)phenyl)-2-oxo-1,2,3,4-tetrahydroquinazoline-7-carboxylate], 104%; with `O=C1Nc2ccccc2CN1c1cc(OCc2ncccc2F)ccc1CN1CCOCC1` [Example 313, 3-(5-((3-fluoropyridin-2-yl)methoxy)-2-(morpholin-4-ylmethyl)phenyl)-3,4-dihydroquinazolin-2(1H)-one], 64%. For `O=C(c1cc2c(c(C3CC3)n1)CN(c1cc3c(cc1Cl)CCC(c1ncccc1F)O3)C(=O)N2)N1CC(O)C1` (stereo not drawn) [Example 112, 3-(6-chloro-2-(3-fluoropyridin-2-yl)-3,4-dihydro-2H-chromen-7-yl)-5-cyclopropyl-7-((3-hydroxyazetidin-1-yl)carbonyl)-3,4-dihydropyrido[4,3-d]pyrimidin-2(1H)-one], the “inhibitory rate (%)” value came to 103%. The same measure for `CC(C)(O)c1ccc2c(c1)NC(=O)N(c1cc(OCc3c(F)cccc3F)ccc1Cc1ccccc1)C2` [Example 254, 3-(2-benzyl-5-((2,6-difluorobenzyl)oxy)phenyl)-7-(2-hydroxypropan-2-yl)-3,4-dihydroquinazolin-2(1H)-one]: 98%. The same measure for `Cc1cc2c(cc1N1Cc3c(F)cncc3NC1=O)OC(c1ncccc1F)CC2` (stereo not drawn) [Example 88, 5-fluoro-3-(2-(3-fluoropyridin-2-yl)-6-methyl-3,4-dihydro-2H-chromen-7-yl)-3,4-dihydropyrido[3,4-d]pyrimidin-2(1H)-one]: 96%; for `Cc1cc2c(cc1N1Cc3c(cc(-c4c(C)noc4C)nc3C3CC3)NC1=O)OC(c1ncccc1F)CC2` (stereo not drawn) [Example 151, 5-cyclopropyl-7-(3,5-dimethyl-1,2-oxazol-4-yl)-3-(2-(3-fluoropyridin-2-yl)-6-methyl-3,4-dihydro-2H-chromen-7-yl)-3,4-dihydropyrido[4,3-d]pyrimidin-2(1H)-one]: 90%.

For `Cc1ccc(OCc2ncccc2F)cc1N1Cc2ccc(C(=O)Nc3ccccn3)cc2NC1=O` [Example 271, 3-(5-((3-fluoropyridin-2-yl)methoxy)-2-methylphenyl)-2-oxo-N-(pyridin-2-yl)-1,2,3,4-tetrahydroquinazoline-7-carboxamide], the “inhibitory rate (%)” value amounted to 100%.

For `Cc1ccc(OCc2c(F)cccc2F)cc1N1Cc2ccc(CO)cc2NC1=O` [Example 181, 3-(5-((2,6-difluorobenzyl)oxy)-2-methylphenyl)-7-(hydroxymethyl)-3,4-dihydroquinazolin-2(1H)-one], the “inhibitory rate (%)” value was 91%. With `O=C1Nc2ccnc(Cl)c2CN1c1cc2c(cc1C(F)(F)F)CCC(c1ncccc1F)O2` (stereo not drawn) [Example 35, 5-chloro-3-(2-(3-fluoropyridin-2-yl)-6-(trifluoromethyl)-3,4-dihydro-2H-chromen-7-yl)-3,4-dihydropyrido[4,3-d]pyrimidin-2(1H)-one] the figure was 93%; with `Cc1cc2c(cc1-n1c(=O)[nH]c3ccccc3c1=O)OC(c1ncccc1F)CC2` (stereo not drawn) [Example 327, 3-(2-(3-fluoropyridin-2-yl)-6-methyl-3,4-dihydro-2H-chromen-7-yl)quinazoline-2,4(1H,3H)-dione], 107%.

The values are drawn from patent US20150299188A1, “HETEROCYCLIC COMPOUND” (priority 2012, published 2015).
